The values below come from patent US8614201B2 (Janssen Pharmaceutica NV, priority 2009, dated 2013).

Sequence of Human TRPA1 (O75762 whole entry): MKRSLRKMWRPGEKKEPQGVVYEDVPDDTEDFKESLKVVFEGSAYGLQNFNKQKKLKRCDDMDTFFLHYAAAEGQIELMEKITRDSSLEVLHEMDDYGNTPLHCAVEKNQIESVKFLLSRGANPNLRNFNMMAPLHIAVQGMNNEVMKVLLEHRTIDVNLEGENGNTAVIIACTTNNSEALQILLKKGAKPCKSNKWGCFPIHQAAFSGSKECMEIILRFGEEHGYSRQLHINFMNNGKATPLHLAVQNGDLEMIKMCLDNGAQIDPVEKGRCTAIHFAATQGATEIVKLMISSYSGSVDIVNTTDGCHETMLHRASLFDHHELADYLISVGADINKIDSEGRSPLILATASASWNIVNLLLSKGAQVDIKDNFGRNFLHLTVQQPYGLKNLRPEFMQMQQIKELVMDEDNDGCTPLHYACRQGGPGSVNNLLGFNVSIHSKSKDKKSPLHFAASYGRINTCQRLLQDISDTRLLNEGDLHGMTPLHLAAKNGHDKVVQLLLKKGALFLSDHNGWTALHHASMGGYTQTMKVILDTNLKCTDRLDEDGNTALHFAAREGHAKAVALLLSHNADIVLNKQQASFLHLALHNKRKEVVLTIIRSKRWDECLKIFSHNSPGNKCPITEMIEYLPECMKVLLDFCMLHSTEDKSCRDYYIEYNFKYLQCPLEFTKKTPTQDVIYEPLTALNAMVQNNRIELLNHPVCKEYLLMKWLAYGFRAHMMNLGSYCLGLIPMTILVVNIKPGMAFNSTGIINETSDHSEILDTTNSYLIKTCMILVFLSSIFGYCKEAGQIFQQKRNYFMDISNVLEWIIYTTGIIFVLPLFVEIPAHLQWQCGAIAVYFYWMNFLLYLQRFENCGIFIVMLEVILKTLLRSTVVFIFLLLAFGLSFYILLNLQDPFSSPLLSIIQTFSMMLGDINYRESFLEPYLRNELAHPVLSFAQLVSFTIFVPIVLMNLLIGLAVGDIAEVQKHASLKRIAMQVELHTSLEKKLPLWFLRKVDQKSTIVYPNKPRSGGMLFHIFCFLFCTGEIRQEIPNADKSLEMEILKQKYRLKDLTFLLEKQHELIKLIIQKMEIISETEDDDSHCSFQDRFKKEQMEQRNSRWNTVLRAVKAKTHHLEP

The target of the test is Human TRPA1 (Homo sapiens, UniProt O75762). Briefly: Assay 1: In vitro cellular testing of TRPA1 modulation (CHO-TREx, Fluo-3 calcium fluorescence, AITC agonist). The settings on record: CHO-TREx cells expressing human TRPA1; Fluo-3 fluorescence (FLIPR/Tetra); agonist 15 μM allyl isothiocyanate (AITC); 30 minute antagonist incubation. On the set-up: expressed in transfected cells; host or cells: CHO-TREx cells (Invitrogen), vector pcDNA4/TO. The test is classed as cell-based. A digest of the protocol:
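Tetracycline-induced CHO-TREx cells stably expressing human TRPA1, loaded with 4 μM Fluo-3 AM, preincubated 30 min with compound (serial dilution typically from 10 μM, three-fold steps) in HEPES saline pH 7.4. Fluorescence change over 3 min after 15 μM AITC; IC50 from Hill fit versus no-antagonist and 10 μM ruthenium red controls.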
As for `O=C(NCc1cc(-c2ccc(C(F)(F)F)cc2)nc(N2CCN(Cc3ccncc3)CC2)c1)[C@@H]1CCCN1S(=O)(=O)c1ccc(Cl)s1` [Example 327, 1-[(5-Chlorothiophen-2-yl)sulfonyl]-N-({2-[4-(pyridin-4-ylmethyl)piperazin-1-yl]-6-[4-(trifluoromethyl)phenyl]pyridin-4-yl}methyl)-L-prolinamide], the IC50 amounted to 587 nM. With `O=C(NCc1cc(-c2ccc(C(F)(F)F)cc2)nc(N2CCN(Cc3cccnc3)CC2)c1)[C@@H]1CCCN1S(=O)(=O)c1ccc(F)cc1` [Example 328, 1-[(4-Fluorophenyl)sulfonyl]-N-({2-[4-(pyridin-3-ylmethyl)piperazin-1-yl]-6-[4-(trifluoromethyl)phenyl]pyridin-4-yl}methyl)-L-prolinamide] the figure was 682 nM; with `O=C(NCc1cc(-c2ccc(C(F)(F)F)cc2)nc(N2CCN(Cc3ccncc3)CC2)c1)[C@@H]1C=CCN1S(=O)(=O)c1ccc(F)cc1` [Example 329, (2S)-1-[(4-Fluorophenyl)sulfonyl]-N-({2-[4-(pyridin-4-ylmethyl)piperazin-1-yl]-6-[4-(trifluoromethyl)phenyl]pyridin-4-yl}methyl)-2,5-dihydro-1H-pyrrole-2-carboxamide], 1760 nM. `O=C(NCc1cc(NCc2ccccn2)nc(-c2ccc(C(F)(F)F)cc2)c1)[C@@H]1C=CCN1S(=O)(=O)c1ccc(Cl)s1` [Example 330, (2S)-1-[(5-Chlorothiophen-2-yl)sulfonyl]-N-({2-[(pyridin-2-ylmethyl)amino]-6-[4-(trifluoromethyl)phenyl]pyridin-4-yl}methyl)-2,5-dihydro-1H-pyrrole-2-carboxamide]: the IC50 turned out to be 604 nM. As for `CN(C)c1cc(CNC(=O)[C@@H]2CCCN2S(=O)(=O)c2ccc(F)cc2)cc(-c2ccc(C(F)(F)F)cc2)n1` [Example 331, N-({2-(Dimethylamino)-6-[4-(trifluoromethyl)phenyl]pyridin-4-yl}methyl)-1-[(4-fluorophenyl)sulfonyl]-L-prolinamide], the 50% inhibitory concentration (IC50) came to 176 nM. Then `CN(C)c1cc(CNC(=O)[C@@H]2CCCN2S(=O)(=O)c2ccc(Cl)s2)cc(-c2ccc(C(F)(F)F)cc2)n1` [Example 332, 1-[(5-Chlorothiophen-2-yl)sulfonyl]-N-({2-(dimethylamino)-6-[4-(trifluoromethyl)phenyl]pyridin-4-yl}methyl)-L-prolinamide], with 58 nM. Then `CC1CCCN1c1cc(CNC(=O)[C@@H]2CCCN2S(=O)(=O)c2ccc(Cl)s2)cc(-c2ccc(C(F)(F)F)cc2)n1` (stereo partly drawn) [Example 333, 1-[(5-Chlorothiophen-2-yl)sulfonyl]-N-({2-(2-methylpyrrolidin-1-yl)-6-[4-(trifluoromethyl)phenyl]pyridin-4-yl}methyl)-L-prolinamide], with 73 nM; and `CN(C)c1cc(CNC(=O)[C@@H]2C=CCN2S(=O)(=O)c2ccc(Cl)s2)cc(-c2ccc(C(F)(F)F)cc2)n1` [Example 334, (2S)-1-[(5-Chlorothiophen-2-yl)sulfonyl]-N-({2-(dimethylamino)-6-[4-(trifluoromethyl)phenyl]pyridin-4-yl}methyl)-2,5-dihydro-1H-pyrrole-2-carboxamide], with 2630 nM. With `CNc1cc(CNC(=O)[C@@H]2CCCN2S(=O)(=O)c2ccc(Cl)s2)cc(-c2ccc(C(F)(F)F)cc2)n1` [Example 335, 1-[(5-Chlorothiophen-2-yl)sulfonyl]-N-({2-(methylamino)-6-[4-(trifluoromethyl)phenyl]pyridin-4-yl}methyl)-L-prolinamide] the figure was 179 nM; with `CC1CCCN1c1cc(CNC(=O)[C@@H]2CCCN2S(=O)(=O)c2ccc(F)cc2)cc(-c2ccc(C(F)(F)F)cc2)n1` (stereo partly drawn) [Example 336, 1-[(4-Fluorophenyl)sulfonyl]-N-({2-(2-methylpyrrolidin-1-yl)-6-[4-(trifluoromethyl)phenyl]pyridin-4-yl}methyl)-L-prolinamide], 113 nM; with `CNc1cc(CNC(=O)[C@@H]2CCCN2S(=O)(=O)c2ccc(F)cc2)cc(-c2ccc(C(F)(F)F)cc2)n1` [Example 337, 1-[(4-Fluorophenyl)sulfonyl]-N-({2-(methylamino)-6-[4-(trifluoromethyl)phenyl]pyridin-4-yl}methyl)-L-prolinamide], 1010 nM. Take `CN(C)c1cc(CNC(=O)[C@@H]2C=CCN2S(=O)(=O)c2ccc(F)cc2)cc(-c2ccc(C(F)(F)F)cc2)n1` [Example 338, (2S)—N-({2-(Dimethylamino)-6-[4-(trifluoromethyl)phenyl]pyridin-4-yl}methyl)-1-[(4-fluorophenyl)sulfonyl]-2,5-dihydro-1H-pyrrole-2-carboxamide]: the IC50 turned out to be 382 nM. With `O=C(NCc1cc(-c2ccc(C(F)(F)F)cc2)nc(N2CCN(Cc3ccccn3)CC2)c1)[C@@H]1CCCN1S(=O)(=O)c1ccc(Cl)s1` [Example 339, 1-[(5-Chlorothiophen-2-yl)sulfonyl]-N-({2-[4-(pyridin-2-ylmethyl)piperazin-1-yl]-6-[4-(trifluoromethyl)phenyl]pyridin-4-yl}methyl)-L-prolinamide] the figure was 251 nM; with `O=C(NCc1cc(-c2ccc(C(F)(F)F)cc2)nc(N2CCN(Cc3ccncc3)CC2)c1)[C@@H]1C=CCN1S(=O)(=O)c1ccc(Cl)s1` [Example 340, (2S)-1-[(5-Chlorothiophen-2-yl)sulfonyl]-N-({2-[4-(pyridin-4-ylmethyl)piperazin-1-yl]-6-[4-(trifluoromethyl)phenyl]pyridin-4-yl}methyl)-2,5-dihydro-1H-pyrrole-2-carboxamide], 210 nM; with `O=C(NCc1cc(-c2ccc(C(F)(F)F)cc2)nc(N2CCN(Cc3cccnc3)CC2)c1)[C@@H]1CCCN1S(=O)(=O)c1ccc(Cl)s1` [Example 341, 1-[(5-Chlorothiophen-2-yl)sulfonyl]-N-({2-[4-(pyridin-3-ylmethyl)piperazin-1-yl]-6-[4-(trifluoromethyl)phenyl]pyridin-4-yl}methyl)-L-prolinamide], 693 nM.

Regarding `O=C(NCc1cc(-c2ccc(C(F)(F)F)cc2)nc(N2CCN(Cc3ccncc3)CC2)c1)[C@@H]1CCCN1S(=O)(=O)c1ccc(F)cc1` [Example 342, 1-[(4-Fluorophenyl)sulfonyl]-N-({2-[4-(pyridin-4-ylmethyl)piperazin-1-yl]-6-[4-(trifluoromethyl)phenyl]pyridin-4-yl}methyl)-L-prolinamide], the IC50 was found to be 296 nM.

Turning to `O=C(NCc1cc(NCc2ccncc2)nc(-c2ccc(C(F)(F)F)cc2)c1)[C@@H]1CC(F)(F)CN1S(=O)(=O)c1ccc(F)cc1` [Example 343, 4,4-Difluoro-1-[(4-fluorophenyl)sulfonyl]-N-({2-[(pyridin-4-ylmethyl)amino]-6-[4-(trifluoromethyl)phenyl]pyridin-4-yl}methyl)-L-prolinamide], the IC50 came out at 1060 nM. Consider `O=C(NCc1cc(NCc2ccncc2)nc(-c2ccc(C(F)(F)F)cc2)c1)[C@@H]1C=CCN1S(=O)(=O)c1ccc(F)cc1` [Example 344, (2S)-1-[(4-Fluorophenyl)sulfonyl]-N-({2-[(pyridin-4-ylmethyl)amino]-6-[4-(trifluoromethyl)phenyl]pyridin-4-yl}methyl)-2,5-dihydro-1H-pyrrole-2-carboxamide], for which the IC50 was above 10000 nM.
